Source: patent publication US8802597B2, “Herbicidal pyrimidines” (E I du Pont de Nemours and Company, priority 2003, dated 2014)

Tests used:
Assay type in all cases: in vivo
[1] = tested on: Surinam grass (Brachiaria decumbens); assay: Test B pre/postemergence
Procedure, shortened: (§1)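 Under greenhouse conditions, seeded pots and young plants (1- to 4-leaf, 2 to 18 cm) were treated at the same time with test chemicals in a non-phytotoxic solvent mixture containing surfactant. Response was assessed visually after 13 to 15 days, from 0 (no effect) to 100 (complete control).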

[2] = tested on: barnyardgrass (Echinochloa crus-galli); assay: Test B pre/postemergence
Procedure, shortened: as §1

[3] = tested on: cocklebur (Xanthium strumarium); assay: Test B pre/postemergence
Procedure, shortened: as §1

corn (Zea mays) = assay: Test B pre/postemergence
Procedure, shortened: as §1

[4] = tested on: crabgrass (Digitaria sanguinalis); assay: Test B pre/postemergence
Procedure, shortened: as §1

[5] = tested on: giant foxtail (Setaria faberii); assay: Test B pre/postemergence
Procedure, shortened: as §1

[6] = tested on: lambsquarters (Chenopodium album); assay: Test B pre/postemergence
Procedure, shortened: as §1

[7] = tested on: morningglory (Ipomoea coccinea); assay: Test B pre/postemergence
Procedure, shortened: as §1

[8] = tested on: pigweed (Amaranthus retroflexus); assay: Test B pre/postemergence
Procedure, shortened: as §1

[9] = tested on: velvetleaf (Abutilon theophrasti); assay: Test B pre/postemergence
Procedure, shortened: as §1

[10] = tested on: wheat (Triticum aestivum); assay: Test B pre/postemergence
Procedure, shortened: as §1

[11] = tested on: blackgrass (Alopecurus myosuroides); assay: Test B postemergence; conditions: for Blackgrass plant response rating: scale 0 to 100 (0 no effect, 100 complete control)
Procedure, shortened: as §1

wild oat (Avena fatua) = assay: Test B postemergence; conditions: for Oat, Wild plant response rating: scale 0 to 100 (0 no effect, 100 complete control)
Procedure, shortened: as §1

[12] = tested on: barnyardgrass (Echinochloa crus-galli); assay: Test B flooded paddy test; conditions: Flood
Procedure, shortened: (§2)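 Plants were grown to the 2-leaf stage before treatment, then kept in a greenhouse for 13 to 15 days. Injury was rated visually against untreated controls on a 0 to 100 scale, where 0 is no effect and 100 is complete control.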

[13] = tested on: duck salad (Heteranthera limosa); assay: Test B flooded paddy test; conditions: Flood, scale 0 to 100
Procedure, shortened: as §2

rice (Oryza sativa) = assay: Test B flooded paddy test; conditions: Flood, scale 0 to 100
Procedure, shortened: as §2

[14] = tested on: umbrella sedge (Cyperus difformis); assay: Test B flooded paddy test; conditions: Flood, scale 0 to 100
Procedure, shortened: as §2

[15] = Postemergence, 125 g ai/ha, scale 0 to 100 (0 no effect, 100 complete control)
[16] = Postemergence, 500 g ai/ha, scale 0 to 100
[17] = Preemergence, 125 g ai/ha, scale 0 to 100 (0 no effect, 100 complete control)
[18] = Preemergence, 500 g ai/ha, scale 0 to 100 (0 no effect, 100 complete control)
[19] = Postemergence, 62 g ai/ha, scale 0 to 100 (0 no effect, 100 complete control)
[20] = Preemergence, 62 g ai/ha, scale 0 to 100, 0 no effect, 100 complete control

## COCc1nc(C2CC2)nc(N)c1Br [Compound 11]
[1]; [15]
  Surinam Grass plant response rating: 20
[1]; [16]
  Plant response rating, Surinam Grass: 50
[1]; [17]
  Plant response rating, Surinam Grass: 10
[1]; [18]
  Surinam Grass plant response rating: 70
[2]; [15]
  Barnyardgrass plant response rating: 20
[2]; [16]
  Plant response rating, Barnyardgrass: 90
[2]; [17]
  Plant response rating, Barnyardgrass: 0
[2]; [18]
  Barnyardgrass plant response rating: 10
[3]; [15]
  Cocklebur plant response rating: 80
[3]; [16]
  Plant response rating, Cocklebur: 90
[3]; [17]
  Plant response rating, Cocklebur: 80
[3]; [18]
  Cocklebur plant response rating: 90
Corn (Zea mays); [15]
  Corn plant response rating: 0
Corn (Zea mays); [16]
  Plant response rating, Corn: 0
Corn (Zea mays); [17]
  Plant response rating, Corn: 0
Corn (Zea mays); [18]
  Corn plant response rating: 0
[4]; [15]
  Crabgrass plant response rating: 30
[4]; [16]
  Plant response rating, Crabgrass: 70
[4]; [17]
  Plant response rating, Crabgrass: 30
[4]; [18]
  Crabgrass plant response rating: 80
[5]; [15]
  Foxtail, Giant plant response rating: 10
[5]; [16]
  Plant response rating, Foxtail, Giant: 50
[5]; [17]
  Plant response rating, Foxtail, Giant: 10
[5]; [18]
  Foxtail, Giant plant response rating: 70
[6]; [15]
  Lambsquarters plant response rating: 90
[6]; [16]
  Plant response rating, Lambsquarters: 100
[6]; [17]
  Plant response rating, Lambsquarters: 100
[6]; [18]
  Lambsquarters plant response rating: 100
[7]; [15]
  Morningglory plant response rating: 80
[7]; [16]
  Plant response rating, Morningglory: 100
[7]; [17]
  Plant response rating, Morningglory: 80
[7]; [18]
  Morningglory plant response rating: 90
[8]; [15]
  Pigweed plant response rating: 80
[8]; [16]
  Plant response rating, Pigweed: 90
[8]; [17]
  Plant response rating, Pigweed: 80
[8]; [18]
  Pigweed plant response rating: 90
[9]; [15]
  Velvetleaf plant response rating: 60
[9]; [16]
  Plant response rating, Velvetleaf: 80
[9]; [17]
  Plant response rating, Velvetleaf: 80
[9]; [18]
  Velvetleaf plant response rating: 90
[10]; [15]
  Wheat plant response rating: 0
[10]; [16]
  Plant response rating, Wheat: 40
[10]; [17]
  Plant response rating, Wheat: 0
[10]; [18]
  Wheat plant response rating: 50
[11]; 125 g ai/ha
  Blackgrass plant response rating: 20
[11]; 500 g ai/ha, scale 0 to 100
  Plant response rating, Blackgrass: 60
Wild oat (Avena fatua); 125 g ai/ha
  Oat, Wild plant response rating: 0
Wild oat (Avena fatua); 500 g ai/ha, scale 0 to 100
  Plant response rating, Oat, Wild: 10
[12]; 1000 g ai/ha, scale 0 (no effect) to 100 (complete control)
  Plant response rating, Barnyardgrass: 0
[13]; 1000 g ai/ha
  Plant response rating, Ducksalad: 70
Rice (Oryza sativa); 1000 g ai/ha
  Plant response rating, Rice: 0
[14]; 1000 g ai/ha
  Plant response rating, Sedge, Umbrella: 20

## COC(=O)c1nc(-c2ccc(Br)cc2)nc(N)c1Br [Compound 129]
[1]; [19]
  Surinam Grass plant response rating: 50
[1]; [15]
  Surinam Grass plant response rating: 70
[1]; [20]
  Plant response rating, Surinam Grass: 0
[1]; [17]
  Plant response rating, Surinam Grass: 10
[2]; [19]
  Barnyardgrass plant response rating: 60
[2]; [15]
  Barnyardgrass plant response rating: 70
[2]; [20]
  Plant response rating, Barnyardgrass: 10
[2]; [17]
  Plant response rating, Barnyardgrass: 30
[3]; [19]
  Cocklebur plant response rating: 70
[3]; [15]
  Cocklebur plant response rating: 100
[3]; [20]
  Plant response rating, Cocklebur: 10
[3]; [17]
  Plant response rating, Cocklebur: 30
Corn (Zea mays); [19]
  Corn plant response rating: 70
Corn (Zea mays); [15]
  Corn plant response rating: 80
Corn (Zea mays); [17]
  Plant response rating, Corn: 0
[4]; [19]
  Crabgrass plant response rating: 50
[4]; [15]
  Crabgrass plant response rating: 70
[4]; [20]
  Plant response rating, Crabgrass: 10
[4]; [17]
  Plant response rating, Crabgrass: 30
[5]; [19]
  Foxtail, Giant plant response rating: 40
[5]; [15]
  Foxtail, Giant plant response rating: 50
[5]; [20]
  Plant response rating, Foxtail, Giant: 0
[5]; [17]
  Plant response rating, Foxtail, Giant: 0
[6]; [19]
  Lambsquarters plant response rating: 100
[6]; [15]
  Lambsquarters plant response rating: 100
[6]; [17]
  Plant response rating, Lambsquarters: 80
[7]; [19]
  Morningglory plant response rating: 50
[7]; [15]
  Morningglory plant response rating: 100
[7]; [20]
  Plant response rating, Morningglory: 0
[7]; [17]
  Plant response rating, Morningglory: 0
[8]; [19]
  Pigweed plant response rating: 100
[8]; [15]
  Pigweed plant response rating: 100
[8]; [20]
  Plant response rating, Pigweed: 80
[8]; [17]
  Plant response rating, Pigweed: 90
[9]; [19]
  Velvetleaf plant response rating: 80
[9]; [15]
  Velvetleaf plant response rating: 90
[9]; [20]
  Plant response rating, Velvetleaf: 50
[9]; [17]
  Plant response rating, Velvetleaf: 60
[10]; [19]
  Wheat plant response rating: 0
[10]; [15]
  Wheat plant response rating: 20
[10]; [20]
  Plant response rating, Wheat: 0
[10]; [17]
  Plant response rating, Wheat: 20
[11]; 62 g ai/ha
  Blackgrass plant response rating: 70
[11]; 125 g ai/ha
  Blackgrass plant response rating: 70
Wild oat (Avena fatua); 62 g ai/ha
  Oat, Wild plant response rating: 0
Wild oat (Avena fatua); 125 g ai/ha
  Oat, Wild plant response rating: 40
[12]; 125 g ai/ha, scale 0 to 100
  Plant response rating, Barnyardgrass: 0
[12]; 500 g ai/ha, scale 0 to 100
  Plant response rating, Barnyardgrass: 20
[13]; 125 g ai/ha
  Plant response rating, Ducksalad: 100
[13]; 500 g ai/ha
  Plant response rating, Ducksalad: 100
Rice (Oryza sativa); 125 g ai/ha
  Plant response rating, Rice: 0
Rice (Oryza sativa); 500 g ai/ha
  Plant response rating, Rice: 0
[14]; 125 g ai/ha
  Plant response rating, Sedge, Umbrella: 90
[14]; 500 g ai/ha
  Plant response rating, Sedge, Umbrella: 100
